Data published in US20260325685A1, “Radiopharmaceutical Compositions Targeting Carbonic Anhydrase IX and Uses Thereof” (RayzeBio, Inc., priority 2023, published 2026).
Where two headings read alike, the source gives them in different places.

Tests used:
human CA-XII = target: T1, human CA-XII (Homo sapiens, UniProt O43570); test: Surface Plasmon Resonance (SPR) binding kinetics to recombinant human CA-XII (Biacore 8K, single-cycle kinetics, 1:1 binding model)
T1 construct: purchased Creative BioMart CA12-261H
T1 sequence (O43570 25-354): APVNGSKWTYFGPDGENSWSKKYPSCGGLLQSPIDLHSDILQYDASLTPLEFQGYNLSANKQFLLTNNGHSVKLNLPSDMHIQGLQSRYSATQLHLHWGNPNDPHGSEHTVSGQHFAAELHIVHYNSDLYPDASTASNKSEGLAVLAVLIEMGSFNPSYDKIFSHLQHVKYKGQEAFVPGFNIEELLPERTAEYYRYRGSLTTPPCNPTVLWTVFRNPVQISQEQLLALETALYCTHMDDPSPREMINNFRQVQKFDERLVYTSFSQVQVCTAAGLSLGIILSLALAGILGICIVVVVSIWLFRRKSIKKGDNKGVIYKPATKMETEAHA
Outline: (§1)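 Using captured protein at 1200-1800 RU, we injected compound at 100-0.39 nM in 1% DMSO buffer, pH 7.4, 25° C, then corrected curves for reference and DMSO to obtain rate constants.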

human CA-IX = target: T2, human CA-IX (Homo sapiens, UniProt Q16790); test: Surface Plasmon Resonance (SPR) binding kinetics to recombinant human CA-IX (Biacore 8K, single-cycle kinetics, 1:1 binding model)
T2 construct: purchased Acro CA9-H82E3
Outline: as §1

[1] = Chelated Metal: Lu-175, 25° C., pH 7.4, read-out: CAXII KD
[2] = Chelated Metal: Lu-175; SPR, 25° C., pH 7.4; read-out: CAIX KD
[3] = Chelated Metal: None, 25° C., pH 7.4, read-out: CAXII KD
[4] = Chelated Metal: None; SPR, 25° C., pH 7.4; read-out: CAIX KD
[5] = KD ratio CAXII/CAIX; Chelated Metal: None

Row | Structure (SMILES) | Kd (human CA-XII; [1]) | Kd (human CA-IX; [2]) | also measured
1 | CC(CCCC(=O)N1CCC(C(N)=O)(C(=O)NCC(=O)N2CCN(C(=O)CC[C@H](C(=O)O)N3CCN(CC(=O)O)CCN(CC(=O)O)CCN(CC(=O)O)CC3)C[C@H]2C(=O)NCCn2cc(C34CC(C(=O)Nc5nnc(S(N)(=O)=O)s5)(C3)C4)nn2)CC1)(c1ccc(O)cc1)c1ccc(O)cc1.[Lu+3] [Compound 127.1] | > 10 nM | < 1 nM | –
2 | CC(CCCC(=O)N1CCC(C(N)=O)(C(=O)NCC(=O)N2CCN(C(=O)CC[C@H](C(=O)O)N3CCN(CC(=O)O)CCN(CC(=O)O)CCN(CC(=O)O)CC3)C[C@@H]2C(=O)NCCn2cc(C34CC(C(=O)Nc5nnc(S(N)(=O)=O)s5)(C3)C4)nn2)CC1)(c1ccc(O)cc1)c1ccc(O)cc1.[Lu+3] [Compound 127.2] | > 10 nM | < 1 nM | –
3 | CC(CCCC(=O)N1CCC(C(N)=O)(C(=O)NCC(=O)N2CCN(C(=O)CCC(C(=O)O)N3CCN(CC(=O)O)CCN(CC(=O)O)CC3)C[C@@H]2C(=O)NCCn2cc(C34CC(C(=O)Nc5nnc(S(N)(=O)=O)s5)(C3)C4)nn2)CC1)(c1ccc(O)cc1)c1ccc(O)cc1.[Cu+2] (some centres unmarked) [Compound 127.3] | – | – | Kd (human CA-XII; Chelated Metal: Cu (cold), 25° C., pH 7.4, read-out: CAXII KD): > 10 nM; Kd (human CA-IX; Chelated Metal: Cu (cold); SPR, 25° C., pH 7.4; read-out: CAIX KD): < 1 nM
4 | CC(CCCC(=O)N1CCC(C(N)=O)(C(=O)NCC(=O)NC2(C(=O)NCCn3cc(C45CC(C(=O)Nc6nnc(S(N)(=O)=O)s6)(C4)C5)nn3)CCN(C(=O)CC[C@H](C(=O)O)N3CCN(CC(=O)O)CCN(CC(=O)O)CCN(CC(=O)O)CC3)CC2)CC1)(c1ccc(O)cc1)c1ccc(O)cc1.[Lu+3] [Compound 127.4] | > 10 nM | < 1 nM | –
5 | CC(CCCC(=O)N1CCC(C(N)=O)(C(=O)NCC(=O)NC2(C(=O)NCCn3cc(C45CC(c6cn7nc(S(N)(=O)=O)sc7n6)(C4)C5)nn3)CCN(C(=O)CC[C@H](C(=O)O)N3CCN(CC(=O)O)CCN(CC(=O)O)CCN(CC(=O)O)CC3)CC2)CC1)(c1ccc(O)cc1)c1ccc(O)cc1.[Lu+3] [Compound 127.5] | 2.5 to 10 nM | < 1 nM | –
6 | CC(CCCC(=O)N1CCC(C(N)=O)(C(=O)NCC(=O)NC2(C(=O)NCCn3cc(C45CCC(c6cn7nc(S(N)(=O)=O)sc7n6)(CC4)CC5)nn3)CCN(C(=O)CC[C@H](C(=O)O)N3CCN(CC(=O)O)CCN(CC(=O)O)CCN(CC(=O)O)CC3)CC2)CC1)(c1ccc(O)cc1)c1ccc(O)cc1.[Lu+3] [Compound 127.6] | < 1 nM | < 1 nM | –
7 | Cc1cc(C(=O)Nc2nnc(S(N)(=O)=O)s2)ccc1-c1cn(CCNC(=O)C2(NC(=O)CNC(=O)C3(C(N)=O)CCN(C(=O)CCCC(C)(c4ccc(O)cc4)c4ccc(O)cc4)CC3)CCN(C(=O)CC[C@H](C(=O)O)N3CCN(CC(=O)O)CCN(CC(=O)O)CCN(CC(=O)O)CC3)CC2)nn1.[Lu+3] [Compound 127.7] | > 10 nM | < 1 nM | –
8 | CC(CCCC(=O)N1CCC(C(N)=O)(C(=O)NCC(=O)N2CCN(C(=O)CC[C@H](C(=O)O)N3CCN(CC(=O)O)CCN(CC(=O)O)CCN(CC(=O)O)CC3)C[C@H]2C(=O)NCCn2cc(C34CC(C(=O)Nc5nnc(S(N)(=O)=O)s5)(C3)C4)nn2)CC1)(c1ccc(O)c(F)c1)c1ccc(O)c(F)c1.[Lu+3] [Compound 127.8] | > 10 nM | < 1 nM | –
9 | CC(CCCC(=O)N1CCC(C(N)=O)(C(=O)NCC(=O)NC2(C(=O)NCCn3cc(COc4ccc5nc(S(N)(=O)=O)sc5c4)nn3)CCN(C(=O)CC[C@H](C(=O)O)N3CCN(CC(=O)O)CCN(CC(=O)O)CCN(CC(=O)O)CC3)CC2)CC1)(c1ccc(O)cc1)c1ccc(O)cc1.[Lu+3] [Compound 127.9] | > 10 nM | < 1 nM | –
10 | CC(CCC(=O)N[C@@H](CC(=O)N[C@@H](CC(=O)N1CCN(C(=O)CC[C@H](C(=O)O)N2CCN(CC(=O)O)CCN(CC(=O)O)CCN(CC(=O)O)CC2)C[C@H]1C(=O)NCCn1cc(C23CC(C(=O)Nc4nnc(S(N)(=O)=O)s4)(C2)C3)nn1)C(=O)O)C(=O)O)(c1ccc(O)cc1)c1ccc(O)cc1.[Lu+3] [Compound 127] | > 10 nM | < 1 nM | –
11 | CC[C@H]1CN(CC(=O)O)[C@@H](CC)CN(CC(=O)N2CCN(C(=O)CNC(=O)C3(C(N)=O)CCN(C(=O)CCCC(C)(c4ccc(O)cc4)c4ccc(O)cc4)CC3)[C@H](C(=O)NCCn3cc(C45CC(C(=O)Nc6nnc(S(N)(=O)=O)s6)(C4)C5)nn3)C2)[C@@H](CC)CN(CC(=O)O)[C@@H](CC)CN1CC(=O)O.[Lu+3] [Compound 128.1] | > 10 nM | < 1 nM | –
12 | CC[C@H]1CN(CC(=O)O)[C@@H](CC)CN(CC(=O)N2CCN(C(=O)C[C@H](NC(=O)C[C@H](NC(=O)CCC(C)(c3ccc(O)cc3)c3ccc(O)cc3)C(=O)O)C(=O)O)[C@H](C(=O)NCCn3cc(C45CC(C(=O)Nc6nnc(S(N)(=O)=O)s6)(C4)C5)nn3)C2)[C@@H](CC)CN(CC(=O)O)[C@@H](CC)CN1CC(=O)O.[Lu+3] [Compound 128] | > 10 nM | < 1 nM | –
13 | CC(CCCC(=O)N1CCC(C(N)=O)(C(=O)NCC(=O)N2CCN(C(=O)CCOCCOCCOCCOCCOCCOCCOCCOCCNC(=O)CN3CCN(CC(=O)O)CCN(CC(=O)O)CCN(CC(=O)O)CC3)C[C@H]2C(=O)NCCn2cc(C34CC(C(=O)Nc5nnc(S(N)(=O)=O)s5)(C3)C4)nn2)CC1)(c1ccc(O)cc1)c1ccc(O)cc1.[Lu+3] [Compound 129.1] | > 10 nM | < 1 nM | –
14 | CC(CCCC(=O)N1CCC(C(N)=O)(C(=O)NCC(=O)N2CCN(C(=O)CCOCCOCCNC(=O)CN3CCN(CC(=O)O)CCN(CC(=O)O)CCN(CC(=O)O)CC3)C[C@@H]2C(=O)NCCn2cc(C34CC(C(=O)Nc5nnc(S(N)(=O)=O)s5)(C3)C4)nn2)CC1)(c1ccc(O)cc1)c1ccc(O)cc1.[Lu+3] [Compound 129.2] | > 10 nM | < 1 nM | –
15 | CC(CCCC(=O)N1CCC(C(N)=O)(C(=O)NCC(=O)N2CCN(C(=O)CN3CCN(C(=O)CN4CCN(CC(=O)O)CCN(CC(=O)O)CCN(CC(=O)O)CC4)CC3)C[C@@H]2C(=O)NCCn2cc(C34CC(C(=O)Nc5nnc(S(N)(=O)=O)s5)(C3)C4)nn2)CC1)(c1ccc(O)cc1)c1ccc(O)cc1.[Lu+3] [Compound 129.3] | > 10 nM | < 1 nM | –
16 | CC(CCCC(=O)N1CCC(C(N)=O)(C(=O)NCC(=O)N2CCN(C(=O)CCOCCOCCCC(=O)CN3CCN(CC(=O)O)CCN(CC(=O)O)CCN(CC(=O)O)CC3)C[C@H]2C(=O)NCCn2cc(C34CC(C(=O)Nc5nnc(S(N)(=O)=O)s5)(C3)C4)nn2)CC1)(c1ccc(O)cc1)c1ccc(O)cc1 [Compound 129.4] | – | – | Kd (human CA-XII; [3]): > 10 nM; Kd (human CA-IX; [4]): < 1 nM; Ratio (CAXII/CAIX) (human CA-IX; [5]): **** (50 < ****)
17 | CC(CCCC(=O)N1CCC(C(N)=O)(C(=O)NCC(=O)NC2(C(=O)NCCn3cc(C45CC(C(=O)Nc6nnc(S(N)(=O)=O)s6)(C4)C5)nn3)CCN(C(=O)CCOCCOCCOCCOCCOCCOCCOCCOCCNC(=O)CN3CCN(CC(=O)O)CCN(CC(=O)O)CCN(CC(=O)O)CC3)CC2)CC1)(c1ccc(O)cc1)c1ccc(O)cc1.[Lu+3] [Compound 129.5] | > 10 nM | < 1 nM | –
18 | CC(CCCC(=O)N1CCC(C(N)=O)(C(=O)NCC(=O)NC2(C(=O)NCCn3cc(C45CC(C(=O)Nc6nnc(S(N)(=O)=O)s6)(C4)C5)nn3)CCN(C(=O)CN3CC4(C3)CN(C(=O)CN3CCN(CC(=O)O)CCN(CC(=O)O)CCN(CC(=O)O)CC3)C4)CC2)CC1)(c1ccc(O)cc1)c1ccc(O)cc1.[Lu+3] [Compound 129.7] | > 10 nM | < 1 nM | –
19 | CC(CCC(=O)N[C@@H](CC(=O)N[C@@H](CC(=O)N1CCN(C(=O)CCOCCOCCOCCOCCOCCOCCOCCOCCNC(=O)CN2CCN(CC(=O)O)CCN(CC(=O)O)CCN(CC(=O)O)CC2)C[C@H]1C(=O)NCCn1cc(C23CC(C(=O)Nc4nnc(S(N)(=O)=O)s4)(C2)C3)nn1)C(=O)O)C(=O)O)(c1ccc(O)cc1)c1ccc(O)cc1.[Lu+3] [Compound 129] | – | – | Kd (human CA-XII; read-out: CAXII KD, Chelated Metal: Lu-175, 25° C., pH 7.4): > 10 nM; Kd (human CA-IX; read-out: CAIX KD; Chelated Metal: Lu-175; SPR, 25° C., pH 7.4): 1 to 2.5 nM
20 | CC(CCC(=O)N[C@@H](CC(=O)N[C@@H](CC(=O)N1CCN(C(=S)Nc2ccc3c(c2)OCCN(Cc2cccc(C(=O)O)n2)CCOCCOCCN(Cc2cccc(C(=O)O)n2)CCO3)C[C@H]1C(=O)NCCn1cc(C23CC(C(=O)Nc4nnc(S(N)(=O)=O)s4)(C2)C3)nn1)C(=O)O)C(=O)O)(c1ccc(O)cc1)c1ccc(O)cc1 [Compound 130] | – | – | Kd (human CA-XII; [3]): 2.5 to 10 nM; Kd (human CA-IX; [4]): < 1 nM; Ratio (CAXII/CAIX) (human CA-IX; [5]): *** (10 < *** ≤ 50)
21 | CC(CCC(=O)N[C@@H](CC(=O)N[C@@H](CC(=O)N1CCN(C(=O)CCOCCOCCOCCOCCN(CCOCCOCCOCCOCCC(=O)N2CCN(C(=O)C[C@H](NC(=O)C[C@H](NC(=O)CCC(C)(c3ccc(O)cc3)c3ccc(O)cc3)C(=O)O)C(=O)O)[C@H](C(=O)NCCn3cc(C45CC(C(=O)Nc6nnc(S(N)(=O)=O)s6)(C4)C5)nn3)C2)C(=O)CN2CCN(CC(=O)O)CCN(CC(=O)O)CCN(CC(=O)O)CC2)C[C@H]1C(=O)NCCn1cc(C23CC(C(=O)Nc4nnc(S(N)(=O)=O)s4)(C2)C3)nn1)C(=O)O)C(=O)O)(c1ccc(O)cc1)c1ccc(O)cc1 [Compound 131.1] | – | – | Kd (human CA-XII; [3]): < 1 nM; Kd (human CA-IX; [4]): < 1 nM; Ratio (CAXII/CAIX) (human CA-IX; [5]): * (1 < * < 5)
22 | CC(CCC(=O)N[C@@H](CC(=O)N[C@@H](CC(=O)N1CCN(C(=O)CCOCCOCCOCCOCCN(CCOCCOCCOCCOCCC(=O)N2CCN(C(=O)C[C@H](NC(=O)C[C@H](NC(=O)CCC(C)(c3ccc(O)cc3)c3ccc(O)cc3)C(=O)O)C(=O)O)[C@H](C(=O)NCCn3cc(C45CC(C(=O)Nc6nnc(S(N)(=O)=O)s6)(C4)C5)nn3)C2)C(=O)CNC(=O)CN2CCN(CC(=O)O)CCN(CC(=O)O)CCN(CC(=O)O)CC2)C[C@H]1C(=O)NCCn1cc(C23CC(C(=O)Nc4nnc(S(N)(=O)=O)s4)(C2)C3)nn1)C(=O)O)C(=O)O)(c1ccc(O)cc1)c1ccc(O)cc1 [Compound 131.2] | – | – | Kd (human CA-XII; [3]): < 1 nM; Kd (human CA-IX; [4]): < 1 nM
